Test in all cases: NCI tumour cell line growth inhibition, 48 h
Test [1] concerns NCI-H522 lung.
Test [2] relates to MDA-MB-231 breast.
In test [3] the test system is OVCAR-5 ovarian.
Test [4] relates to NCI-H226 lung.
Test [5] deals with MALME-3M melanoma.
In test [6] the test system is OVCAR-8 ovarian.
Test [7] relates to OVCAR-3 ovarian.
For test [8], the system named is SNB-19 CNS.
Test [9] concerns U251 CNS.
The test system of test [10] is SK-MEL-28 melanoma.

“And” between values parts separate entries of the source, which are not always exact repeats. Equal values may be shown once.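 Results reflect a 48-hour exposure of cells in 96-well plates to compound at five concentrations. Here, GI50 denotes the concentration required for 50% inhibition of growth. The concentration for full growth arrest is given as TGI.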 Bounds are passed on as bounds.

`C#CC#CC#CC#CC#CC#CC#CC#CC[C@@H]1OC[C@@H](COC(=O)O[C@@H](C(=O)O[C@H]2C[C@@]3(O)[C@@H](OC(=O)c4ccccc4)[C@@H]4[C@]5(OC(C)=O)CO[C@@H]5C[C@H](O)[C@@]4(C)C(=O)[C@H](OC(C)=O)C(=C2C)C3(C)C)[C@@H](NC(=O)c2ccccc2)c2ccccc2)O1`: the GI50 in test [1] was 0.367 µM; in test [2], 0.65 µM; in test [3] it was 0.333 µM; in test [4] it was > 9.56 µM; in test [5], 0.721 µM; in test [6], 0.46 µM. In addition, the GI50 was 0.142 µM in test [7], 1.08 µM in test [8] and 0.316 µM in [9]. The TGI was > 17.6 µM in [1]; > 33.3 µM in test [2]; > 33.3 µM in [3]; > 33.3 µM in [4]; > 33.3 µM in test [5]; > 33.3 µM in test [6]. The TGI in test [8] and in test [9] was > 33.3 µM each time.
Consider `Nc1ncc(C2[C@H](CNC(=O)c3cc(Br)c[nH]3)C(CNC(=O)c3cc(Br)c[nH]3)[C@@H]2c2cnc(N)[nH]2)[nH]1` (some centres not stated), for which the GI50 in test [1] was > 50 µM; in test [2], 8.01 µM; in [3], > 50 µM; in [4], > 50 µM; in [5], > 50 µM; in test [6], > 50 µM. The GI50 in test [7] and in test [9] was > 50 µM in each case. Further, the TGI in test [1], in [2], in [3], in test [4], in test [5] and in test [6] was > 50 µM in each case. The TGI in test [7] and in test [9] was > 50 µM each time.
Take `CCN(CC)CCOc1ccc2c(C)c(C(=O)OC)oc2c1C(=O)/C=C/c1ccc(OC)cc1`: the GI50 is 4.3 µM in test [1]; 3.79 µM in [2]; 2.32 µM in [3]; 25.3 µM in test [4]; 2.89 µM in [10]; 20.2 µM in test [6]. Moreover, the GI50 in test [7] was 4.36 µM; in test [8], 4.86 µM; in test [9] it was 1.75 µM. The TGI in test [1] was found to be 15.2 µM; in test [2], 11.2 µM; in [3], 6.99 µM; in [4], 44.9 µM; in test [10], 11.2 µM; in test [6], 40.1 µM. Also, the values for the TGI in test [7], in test [8] and in test [9] were 12.2 µM, 13.8 µM and 4.44 µM, respectively.
Regarding `C=CCN=C(N/N=C/c1ccc([N+](=O)[O-])o1)NS(=O)(=O)c1cc(C(=O)Nc2ccccc2)c(Cl)cc1SCC(N)=O`, the GI50 in test [1] is 27.8 µM; in [2], 14 µM; in test [3], > 100 µM; in test [4], 30.8 µM; in [10], 37.6 µM; in test [6], 29.6 µM. Besides, the GI50 in [7] was 14.7 µM; in test [8], 33.8 µM; in test [9] it was 22.9 µM. Also, the TGI in test [1] was 67.1 µM; in test [2], 50.8 µM; in test [3], > 100 µM; in [4], > 100 µM; in [10], > 100 µM; in test [6] it was > 100 µM. In addition, the values for the TGI in test [7], in test [8] and in test [9] were 39.8 µM, > 100 µM and 95.8 µM, respectively.
Consider `C=C(Cl)[C@@](Cl)(CBr)CC[C@@H](Br)C(C)(C)Cl`, for which the TGI in test [1] was 34.5 µM and 43.5 µM; in [3] it was 7.39 µM and 3.22 µM; in test [4], 31 µM and 50.8 µM; in test [5], 42.9 µM; in [7], 2.87 µM and 1.35 µM; in test [8], 1.54 µM and 1.52 µM. Also, the GI50 in test [2] is 0.577 µM; in test [3], 2.45 µM; in test [8], 0.358 µM; in test [9] it was 0.971 µM.
For the molecule `O=C(Oc1ccc2c(c1)CN(Cc1ccccc1)CO2)c1ccccc1`, the TGI in test [1] stood at 22.3 µM; in test [2], 36 µM; in test [3] it was 33.6 µM; in [10], 41.2 µM; in test [5], 33.9 µM; in test [6], 32.9 µM. Also, the TGI in test [7] turned out to be 29.7 µM; in [8], 34.1 µM; in test [9] it was 31.2 µM.
Turning to `COc1cc(/C=C\c2cc(OC)c(OC)c(OC)c2)cc(NS(=O)(=O)c2ccc(Cl)cc2)c1OC`, the GI50 in test [1] is 0.209 µM; in test [2] it was 1.16 µM; in [3], 0.726 µM; in test [4] it was 13.5 µM; in test [10] it was 1.14 µM; in test [6] it was 0.6 µM. In addition, the GI50 is 0.364 µM in test [7], 0.745 µM in test [8] and 0.461 µM in test [9]. The TGI in test [1] was 0.87 µM; in [2], > 100 µM; in [3] it was > 100 µM; in [4], > 100 µM; in test [10], > 100 µM; in test [6], > 100 µM. The values for the TGI in [7], in test [8] and in test [9] were > 100 µM, > 100 µM and 20.7 µM, respectively.
On to `COc1cc2cc3c(c(O)c2c(O)c1-c1c(OC)cc2cc4c(c(O)c2c1O)C(=O)O[C@H](C)C4)C(=O)O[C@H](C)C3`, for which the GI50 in test [1] was 44.3 µM; in test [2] it was 16.2 µM; in [3], 94.2 µM; in [4], 32.7 µM; in test [10] it was 33 µM; in test [6] it was 33.5 µM. The GI50 in test [7] was 21.2 µM; in [8] it was 32.3 µM; in [9] it was 19.6 µM. In addition, the TGI was > 100 µM in test [1]; 42 µM in test [2]; > 100 µM in test [3]; > 100 µM in [4]; 99.1 µM in [10]; > 100 µM in test [6]. The TGI in test [7] is 48.4 µM; in [8], 99.2 µM; in test [9], 48.1 µM.
As for `OCC#Cc1ccccc1C#Cc1ccc(C#Cc2ccccc2)cc1`, the GI50 in test [1] is 55.2 µM; in test [2] it was 20 µM; in [3] it was 17.7 µM; in test [4] it was 18.4 µM; in test [10], 38.3 µM; in test [6], 23.1 µM. The GI50 in [7] is 27.3 µM; in test [8], 35.9 µM; in test [9] it was 19.9 µM. In addition, the TGI in test [1] is > 100 µM; in [2], 37.5 µM; in test [3], 34.9 µM; in [4] it was 43 µM; in [10] it was > 100 µM; in test [6] it was 57 µM. Also, the TGI was 48.7 µM in test [7], > 100 µM in [8] and 38.6 µM in test [9].

Source of the values: PubChem BioAssay (NCI).
